Experimental findings from ChEMBL document CHEMBL5137025, “Tuberculosis Drug Discovery: Challenges and New Horizons” (J Med Chem, 2022) are described below.

Data set [1] concerns Mycobacterium tuberculosis. It counts as functional. The note with it: H37Rv, time 14-21 day.
The subject of data set [2] is Mycobacterium tuberculosis. Nature of the data set: microbe, parasite or virus in culture. The note with it: H37Rv.
Description: Antibacterial activity against Mycobacterium tuberculosis H37Rv assessed as inhibition of bacterial growth
Data set [3] relates to Mycobacterium tuberculosis. The data set is classed as functional, H37Rv. Conditions: dose 50 mg/kg/day; route po; time <= 28 day.
The test system of data set [4] is Mycobacterium tuberculosis. It counts as functional, H37Rv. The note with it: dose 25 mg/kg; route po; time 4 weeks.
Data set [5] deals with Mycobacterium tuberculosis. Nature of the data set: Bactericidal activity against Mycobacterium tuberculosis in macrophages. It counts as functional, Macrophage.
Data set [6] has as its system Mycobacterium tuberculosis. Nature of the data set: Antibacterial activity against Mycobacterium tuberculosis assessed as inhibition of bacterial growth. It counts as functional.
Data set [7] relates to Mycobacterium tuberculosis. Nature of the data set: Antibacterial activity against Mycobacterium tuberculosis in chronic Mtb infection mouse model assessed as reduction in log10 CFU at 100 mg/kg bid. The data set is classed as functional.
Data set [8] concerns Mycobacterium tuberculosis. It counts as functional. Conditions: H37Rv, time 6 day.
Data set [9] relates to Mycobacterium tuberculosis. The data set is classed as functional, H37Rv. The note with it: dose 50 mg/kg; route po; time 4 weeks.
The nature of data set [10]: Solubility of the compound. The data set is classed as physicochemical.
Data set [11] relates to HepG2. Kind of data set: Cytotoxicity against human HepG2 cells. It counts as functional.
Data set [12] can be described thus: Selectivity index, ratio of CC50 for human HepG2 cells to MIC99 for Mycobacterium tuberculosis H37Rv. The data set is classed as toxicity.
Data set [13] deals with Mycobacterium tuberculosis. Kind of data set: Antibacterial activity against Mycobacterium tuberculosis in acute Mtb infection BALB/c mouse model assessed as reduction in log10 CFU in lungs at 100 mg/kg for 3 weeks. It counts as functional.
Data set [14] relates to HepG2. Nature of the data set: Cytotoxicity against human HepG2 cells treated for 72 hrs by MTT assay. It counts as functional.
The nature of data set [15]: Cytotoxicity against African green monkey Vero cells treated for 72 hrs by MTT assay. The data set is classed as toxicity, cell-based. Conditions: chlorocebus sabaeus.
Data set [16] deals with Mycobacterium tuberculosis. Kind of data set: Antibacterial activity against Mycobacterium tuberculosis in chronic Mtb infection BALB/c mouse model assessed as reduction in log10 CFU in lungs at 200 mg/kg for 4 weeks. It counts as functional.
Data set [17] deals with Voltage-gated inwardly rectifying potassium channel KCNH2 (Homo sapiens, UniProt Q12809).
Data set [18] relates to Mycobacterium tuberculosis. The data set is classed as functional. Conditions: dose 100 mg/kg; route po; time 4 weeks.
Data set [19] has as its system Mycobacterium tuberculosis. The data set is classed as functional. The note with it: H37Rv, 168 h, time 7 day.
Data set [20] concerns Mycobacterium tuberculosis. The data set is classed as functional, H37Rv. Conditions: dose 25 mg/kg; route po; time 8 weeks.
In data set [21] the test system is Mycobacterium tuberculosis. Kind of data set: Antibacterial activity against non-replicating Mycobacterium tuberculosis assessed as inhibition of bacterial growth. The data set is classed as functional.
Data set [22] has as its system Mycobacterium tuberculosis. It counts as functional. Conditions: H37Rv, 168 h, time 7 day. This is another data set of the same source.
Data set [23] concerns Mycobacterium tuberculosis. Nature of the data set: Antibacterial activity against Mycobacterium tuberculosis Erdman in acute Mtb infection BALB/c mouse model assessed as reduction in log10 CFU in lungs at 200 mg/kg, po daily via gavage for 3 weeks. The data set is classed as functional.
Data set [24] in a line: Cytotoxicity against human MRC5 cells. The data set is classed as toxicity, cell-based.
The subject of data set [25] is Mycobacterium tuberculosis. It counts as functional. The note with it: H37Rv, 168 h, time 7 day. The source holds these as a separate data set.
In data set [26] the test system is Mycobacterium tuberculosis. Nature of the data set: Bactericidal activity against Mycobacterium tuberculosis H37Rv in chronic Mtb infection BALB/c mouse model assessed as log10 CFU kill at 20 mg/kg, po qd via gavage measured after 4 weeks. The data set is classed as functional.
A short description of data set [27]: Oral bioavailability in mouse. The data set is classed as ADME, organism-based. Conditions: in vivo.
In data set [28] the test system is Mycobacterium tuberculosis. It counts as functional. Conditions: H37Rv, 336 h, time 14 day.
For data set [29], the system named is Mycobacterium tuberculosis. The data set is classed as functional. Conditions: H37Rv.
Data set [30] concerns Mycobacterium tuberculosis. Nature of the data set: Antibacterial activity against Mycobacterium tuberculosis Erdman in acute Mtb infection BALB/c mouse model assessed as reduction in log10 CFU in lungs at 50 mg/kg, po via gavage for 8 weeks. It counts as functional.

Converted amounts (≈) assume the structure as drawn. Where only a bound is given, the exact number is not on record here.

Chain of Voltage-gated inwardly rectifying potassium channel KCNH2 (Q12809 whole entry): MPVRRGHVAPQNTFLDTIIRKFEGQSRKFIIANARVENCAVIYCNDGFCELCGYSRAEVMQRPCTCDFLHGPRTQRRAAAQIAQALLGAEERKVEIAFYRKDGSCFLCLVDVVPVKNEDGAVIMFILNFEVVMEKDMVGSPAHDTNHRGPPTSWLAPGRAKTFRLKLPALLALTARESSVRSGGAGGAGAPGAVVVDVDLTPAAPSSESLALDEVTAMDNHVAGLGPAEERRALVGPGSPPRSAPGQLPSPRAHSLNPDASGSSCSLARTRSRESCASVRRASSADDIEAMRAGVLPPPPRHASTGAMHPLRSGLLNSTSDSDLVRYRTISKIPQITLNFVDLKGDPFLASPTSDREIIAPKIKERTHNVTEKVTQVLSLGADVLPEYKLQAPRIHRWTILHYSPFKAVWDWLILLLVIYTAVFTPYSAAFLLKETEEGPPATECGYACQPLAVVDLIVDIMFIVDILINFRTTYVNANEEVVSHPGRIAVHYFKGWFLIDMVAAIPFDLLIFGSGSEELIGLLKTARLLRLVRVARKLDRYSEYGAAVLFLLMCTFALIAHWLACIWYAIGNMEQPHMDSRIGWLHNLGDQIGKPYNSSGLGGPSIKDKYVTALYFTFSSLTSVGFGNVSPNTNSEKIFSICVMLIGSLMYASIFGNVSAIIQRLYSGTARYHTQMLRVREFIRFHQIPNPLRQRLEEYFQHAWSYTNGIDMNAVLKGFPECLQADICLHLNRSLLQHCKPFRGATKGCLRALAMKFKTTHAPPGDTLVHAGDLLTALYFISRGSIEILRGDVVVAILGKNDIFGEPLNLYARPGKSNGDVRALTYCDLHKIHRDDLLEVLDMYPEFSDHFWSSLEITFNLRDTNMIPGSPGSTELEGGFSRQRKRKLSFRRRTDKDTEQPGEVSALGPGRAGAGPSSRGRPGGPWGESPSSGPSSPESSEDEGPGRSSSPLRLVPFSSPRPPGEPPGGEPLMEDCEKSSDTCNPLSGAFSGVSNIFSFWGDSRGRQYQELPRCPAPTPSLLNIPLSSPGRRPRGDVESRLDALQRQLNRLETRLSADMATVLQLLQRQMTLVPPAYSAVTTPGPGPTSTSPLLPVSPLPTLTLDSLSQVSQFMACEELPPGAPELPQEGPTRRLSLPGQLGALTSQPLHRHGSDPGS

For `CC(=O)NC[C@H]1CN(c2ccc(N3CCOCC3)c(F)c2)C(=O)O1` [LINEZOLID], the MIC in data set [1] and in [2] was 1.5 µM (≈ 0.506 µg/mL) in each case.

In [2], `O=C(C1CCN(c2nnc(-n3cccc3)s2)CC1)N1CCC(Cc2ccccc2)CC1` returned an MIC90 of 4 µM (≈ 1.74 µg/mL).

As to `O=c1nc(N2CCN(CC3CCCCC3)CC2)sc2c([N+](=O)[O-])cc(C(F)(F)F)cc12` [MACOZINONE], the values for the Activity in [3] and in data set [4] were 1.1 log10CFU and 1 log10CFU, respectively.

With `CCc1cc(C(N)=S)ccn1` [ETHIONAMIDE], the MIC in [2] was 12 µM (≈ 1.99 µg/mL).

Consider `Cc1cccc(OC2CCN(Cc3cc(=O)[nH]c(=O)[nH]3)CC2)c1C` [GSK-2556286], for which the Activity in [5] was <0.1 µM.

Consider `CCNC(=O)Nc1nc2cc(-c3cnc(C(C)(C)O)nc3)c(F)c([C@H]3CCCO3)c2[nH]1`, for which the MIC90 in data set [6] stood at 0.07 µM (≈ 0.03 µg/mL).

On to `CCNC(=O)Nc1nc2cc(-c3cnc(C(C)(C)OP(=O)(O)O)nc3)c(F)c([C@H]3CCCO3)c2[nH]1`, for which the Activity in data set [7] was 2.5 log10CFU.

For the compound `O=c1nc(N2CCN(S(=O)(=O)C3CC3)CC2)sc2c([N+](=O)[O-])cc(C(F)(F)F)cc12`, in [8], the MIC99 is 0.0065 µM (≈ 0.00302 µg/mL). The compound further came in with an Activity in data set [9] of 0.5 log10CFU. Moreover, the solubility in data set [10] was 19 µM (≈ 8.82 µg/mL). The compound also showed a CC50 in the data set with HepG2 [11] of 17 µM. In addition, the selectivity ratio in [12] was 2620.

The compound `N[C@@H]1CONC1=O` [CYCLOSERINE] registered an MIC in [2] of 157 µM (≈ 16 µg/mL).

Consider `CCOC(=O)NC(=O)c1ccsc1NC(=O)c1nc2cnccc2s1`, for which the Activity is given as 2.3 log10CFU in [13] and >1.7 log10CFU in data set [16]. The CC50 in the data set on HepG2 [14] was > 100 µM. The CC50 at 72 h in data set [15] is > 100 µM. Further, the IC50 in data set [17] was > 30 µM. The MIC90 in data set [2] turned out to be 0.089 µM (≈ 0.0335 µg/mL).

Consider `CC1(C)CCC(NC(=O)c2cc3c(Cl)cc(Cl)cc3[nH]2)CC1`, for which the Activity in [18] amounted to 3.1 log10CFU. The same compound showed an MIC90 in data set [2] of 0.02 µM (≈ 0.00679 µg/mL).

The compound `CC(=O)NC[C@H]1CN(c2ccc(N3CCSCC3)c(F)c2)C(=O)O1` [SUTEZOLID] yielded an MIC80 in data set [2] of 0.28 µM (≈ 0.099 µg/mL).

`CON=C1CCC(CN2CCN(c3nc(=O)c4cc(C(F)(F)F)cc([N+](=O)[O-])c4s3)CC2)CC1` (centres undefined) registered an MIC90 in [19] of 0.028 µM (≈ 0.014 µg/mL). The compound also had an Activity in data set [20] of 1.8 log10CFU.

`O=C(N/N=C/c1ccc(Oc2no[n+]([O-])c2S(=O)(=O)c2ccccc2)cc1)c1ccncc1`: in [21], the MIC90 was found to be 9.8 µM (≈ 4.56 µg/mL). The compound also yielded an MIC in data set [22] of 1 µM (≈ 0.465 µg/mL). Also, in [23], the Activity was >6 log10CFU. The same compound gave a CC50 in [24] of 43 µM.

Take `COc1ncccc1Nc1cc2nc3ccccc3n(-c3ccc(OC(F)(F)F)cc3)c-2c/c1=N\C1CCC(OC)CC1` (centres undefined): the MIC90 in [25] is < 0.008 µM. For the same compound, the Activity in data set [26] was found to be 1.7 log10CFU.

As to `FC(F)(F)Oc1ccc(Oc2ccc(CN3CCC4(CC3)OCCc3sccc34)cc2)cc1`, the concentration in solution in [10] (solubility) was 6 µM (≈ 2.85 µg/mL). The CC50 in the data set on HepG2 [11] was found to be 36 µM. Further, in [27], the bioavailability is 55%. For the same compound, the MIC90 in [2] is 0.06 µM (≈ 0.0285 µg/mL).

For the compound `CC(C)/N=c1\cc2n(-c3ccc(Cl)cc3)c3ccccc3nc-2cc1Nc1ccc(Cl)cc1` [CLOFAZIMINE], in data set [26], the Activity was 2.2 log10CFU.

Compound `Cc1cc(Nc2ncc(Cl)c(Nc3ccccc3S(=O)(=O)C(C)C)n2)c(OC(C)C)cc1C1CCNCC1` [CERITINIB] showed an MIC90 in data set [2] of 9 µM (≈ 5.02 µg/mL).

`O=C(Nc1ccc(N2CCN(c3ccccn3)CC2)c(F)c1)c1ccc2no[n+]([O-])c2c1`: in data set [28], the MIC90 is 0.09 µM (≈ 0.0391 µg/mL).

`CCc1nc2ccc(Cl)cn2c1C(=O)NCc1ccc(N2CCC(c3ccc(OC(F)(F)F)cc3)CC2)cc1` [TELACEBEC] returned an MIC50 in data set [29] of 0.0027 µM (≈ 0.0015 µg/mL). Besides, the Activity in data set [30] amounted to 0.6 log10CFU. In data set [2], this compound came in with an MIC90 of 0.011 µM (≈ 0.00613 µg/mL).

`O=S1(=O)C[C@H](O)[C@@H](N2CCN(c3ccccc3Cl)CC2)C1`: the MIC in data set [2] amounted to 0.76 µM (≈ 0.251 µg/mL).

`O=C(Nc1ccc(N2CCSCC2)c(F)c1)c1ccc2no[n+]([O-])c2c1` registered an MIC90 in [28] of 0.7 µM (≈ 0.262 µg/mL).

For orientation: MIC99 means an inhibitory concentration at the 99% level, which refers to growth in some studies and to a panel of isolates in others. A word on the solubility: it is how much of the substance goes into solution per volume. The term CC50 denotes the concentration giving 50% cytotoxicity. The term IC50 denotes the midpoint of a concentration-inhibition curve. As a reminder, the bioavailability is the share of a dose that reaches the circulation, judged against a reference dose that is usually intravenous. In general, MIC50 refers to the lowest concentration that inhibits either 50% of growth or 50% of the strains tested, depending on the study.
